Patent US20250018049A1, “COMPOUNDS FOR DEGRADING CYCLIN-DEPENDENT KINASE 2 VIA UBIQUITIN PROTEOSOME PATHWAY” (NIKANG THERAPEUTICS, INC., priority 2020, published 2025)

Legend:
Type in all cases: cell-based
CDK1 = molecular target: T1, CDK1 (Homo sapiens, UniProt P06493); test: Phospho-Rb HTRF measurement in KYSE520 cells (inhibition of CDK1); conditions: CDK2-dependent OVCAR3 vs CDK2-independent but CDK1-dependent KYSE520 cell line
T1 construct: endogenous in cells; host or cells: KYSE520
Procedure: Phosphorylation of RB protein at S780 and S807/811 were measured using HTRF phospho-RB cellular kits (Cat #64RBS780PEG and 64RBS807PEG) from Cisbio.
On Day 1, OVCAR3 or KYSE520 cells were seeded into 96-well tissue-culture treated plates at 20,000 cells/well in 200 μL and incubated overnight at 37° C. in CO2 atmosphere. On Day 2, the cells were treated with test compounds at concentrations from 0.3 to 10,000 nM using HP D300 digital dispenser. Twenty-four hours after compound treatment, cell culture media was removed by flicking the plate and tapping the plate against clean paper towel. Immediately 30 μL 1× lysis buffer was supplemented from the kit and the plate was incubated at room temperature on shaker for 30 min. After homogenization by pipetting up and down, 8 μL cell lysate from 96-well cell culture plate was transferred to 384-well small volume white detection plate. 2 μL premixed detection solution was added and the plate was covered with sealer. To prepare the detection solution, d2 conjugated-phospho-RB antibody and Eu-cryptate conjugated phosphor-RB antibody were diluted into detection buffer following manufacturer's instruction. Detection plates were incubated for 4 h at room temperature and read on ClarioStar (BMG Labtech) in TR-FRET mode (665 nM and 620 nM). The TR-FRET ratio (665 nM/620 nM) was plotted against the compound concentration and normalized to DMSO controls. Half maximal inhibition concentration (IC50) values are calculated with a four-parameter logistic fit using GraphPad Prism (version 8; La Jolla, CA).
Compound 5 was not tested in the KYSE520 cell line.

CDK2 [1] = molecular target: T2, CDK2 (Homo sapiens, UniProt P24941); test: Phospho-Rb HTRF measurement in OVCAR3 cells (inhibition of CDK2); design: High-Throughput Measurement of Cellular Endogenous CDK2; endogenous in cells; host or cells: OVCAR3; conditions: pRB(S807/811) assay, 24 h compound treatment
CDK2 [2] = molecular target: T2, CDK2; test: NanoBRET CDK2 engagement assay; design: expressed in transfected cells; conditions: OVCAR3 cells with stable CDK2-Luciferase vector, 24 hours treatment
Summary of the method: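 OVCAR3 cells stably expressing CDK2-luciferase, in Opti-MEM with 1% FBS, treated 24 h at 37° C with compound from 3 μM in ½-log steps to 0.3 nM; NanoBRET tracer present for final 2 h. Donor/acceptor emission read; engagement normalized to DMSO as 100% signal, IC50 by curve fit.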

CDK2 [3] = molecular target: T2, CDK2; test: CDK2 HTRF assay (cellular endogenous CDK2 level); design: High-Throughput Measurement of Cellular Endogenous CDK2; endogenous in cells; host or cells: OVCAR3; conditions: OVCAR-3; OVCAR3 cells, 24 hours, 0.3 to 10,000 nM; read-out: max degradation of CDK2
Summary of the method: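 OVCAR3 cells treated 24 h with compounds at 0.3–10,000 nM, then lysed and total CDK2 measured by HTRF using d2- and Eu-cryptate-labelled CDK2 antibodies (TR-FRET 665/620 nm ratio). Signal normalized to DMSO controls; DC50 from four-parameter logistic fit.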

T1 sequence (P06493 whole entry): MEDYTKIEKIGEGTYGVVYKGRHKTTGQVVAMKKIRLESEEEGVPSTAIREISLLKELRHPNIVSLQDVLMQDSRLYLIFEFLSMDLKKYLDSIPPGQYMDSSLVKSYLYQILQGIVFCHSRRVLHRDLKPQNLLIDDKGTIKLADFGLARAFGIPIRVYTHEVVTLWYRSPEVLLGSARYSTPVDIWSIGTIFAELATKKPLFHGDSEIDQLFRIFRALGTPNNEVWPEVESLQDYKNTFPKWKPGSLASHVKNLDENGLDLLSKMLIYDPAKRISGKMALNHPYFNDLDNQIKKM
T1 sequence (P14635 whole entry partner): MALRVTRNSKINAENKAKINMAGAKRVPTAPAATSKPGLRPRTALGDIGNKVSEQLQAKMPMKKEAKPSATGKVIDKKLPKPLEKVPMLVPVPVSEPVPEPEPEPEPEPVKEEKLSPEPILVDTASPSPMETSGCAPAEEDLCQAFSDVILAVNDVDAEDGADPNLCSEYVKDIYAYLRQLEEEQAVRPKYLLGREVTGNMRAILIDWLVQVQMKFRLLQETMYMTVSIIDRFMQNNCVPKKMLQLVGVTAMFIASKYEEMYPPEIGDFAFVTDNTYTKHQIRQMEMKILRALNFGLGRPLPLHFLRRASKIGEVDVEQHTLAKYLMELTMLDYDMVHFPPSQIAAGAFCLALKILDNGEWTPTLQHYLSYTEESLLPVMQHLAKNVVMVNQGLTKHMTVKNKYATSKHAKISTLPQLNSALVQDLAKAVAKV

| Compound | times more potent pRb inhibition in OVCAR3 than in KYSE520 (CDK1) | IC50 (CDK2 [1]) | IC50 (CDK2 [2]) | Dmax (CDK2 [3]) |
| --- | --- | --- | --- | --- |
| O=C1CCC(N2C(=O)c3cccc(NCCOCCOCCOCCNS(=O)(=O)N4CCC(Nc5ncc6ccc(=O)n(C7CCCC7)c6n5)CC4)c3C2=O)C(=O)N1 (centres unmarked) [Compound 21, 4-((8-cyclopentyl-7-oxo-7,8-dihydropyrido[2,3-d]pyrimidin-2-yl)amino)-N-(2-(2-(2-(2-((2-(2,6-dioxopiperidin-3-yl)-1,3-dioxoisoindolin-4-yl)amino)ethoxy)ethoxy)ethoxy)ethyl) piperidine-1-sulfonamide] | ~11 times | 422 nM | 1170 nM | – |
| O=C1CCC(N2Cc3cc(N4CC(N5CCC(Oc6cccc(S(=O)(=O)N7CCC(Nc8ncc9ccc(=O)n(C%10CCCC%10)c9n8)CC7)c6)CC5)C4)ccc3C2=O)C(=O)N1 (centres unmarked) [Compound 28, 3-(5-(3-(4-(3-((4-((8-cyclopentyl-7-oxo-7,8-dihydropyrido[2,3-d]pyrimidin-2-yl)amino)-piperidin-1-yl)sulfonyl)phenoxy)piperidin-1-yl)-azetidin-1-yl)-1-oxoisoindolin-2-yl)piperidine-2,6-dione] | ~21 times | 52.9 nM | 176 nM | 35 to 90% |
| O=C1CCC(N2Cc3cc(N4CCC(CN5CCC(c6cccc(S(=O)(=O)N7CCC(Nc8ncc9ccc(=O)n(C%10CCCC%10)c9n8)CC7)c6)CC5)CC4)ccc3C2=O)C(=O)N1 (centres unmarked) [Compound 34, 3-(5-(4-((4-(3-((4-((8-cyclopentyl-7-oxo-7,8-dihydropyrido[2,3-d]pyrimidin-2-yl)amino)-piperidin-1-yl)sulfonyl)phenyl)piperidin-1-yl)-methyl)piperidin-1-yl)-1-oxoisoindolin-2-yl)-piperidine-2,6-dione] | ~10.5 times | 50.3 nM | 86 nM | 35 to 90% |
| Cn1c(=O)n(C2CCC(=O)NC2=O)c2cccc(CNCCOc3cccc(S(=O)(=O)N4CCC(Nc5ncc6ccc(=O)n(C7CCCC7)c6n5)CC4)c3)c21 (centres unmarked) [Compound 41, 3-(4-(((2-(3-((4-((8-cyclopentyl-7-oxo-7,8-dihydropyrido[2,3-d]pyrimidin-2-yl)amino)-piperidin-1-yl)sulfonyl)phenoxy)ethyl)amino)-methyl)-3-methyl-2-oxo-2,3-dihydro-1H-benzo[d]imidazol-1-yl)piperidine-2,6-dione] | ~20.5 times | 267 nM | 214 nM | – |
| O=C1CCC(N2Cc3cc(N4CCN(C5CN(c6cccc(S(=O)(=O)N7CCC(Nc8ncc9ccc(=O)n(C%10CCCC%10)c9n8)CC7)c6)C5)CC4)ccc3C2=O)C(=O)N1 (centres unmarked) [Compound 70, 3-(5-(4-(1-(3-((4-((8-cyclopentyl-7-oxo-7,8-dihydropyrido[2,3-d]pyrimidin-2-yl)amino)-piperidin-1-yl)sulfonyl)phenyl)-azetidin-3-yl)piperazin-1-yl)-1-oxoisoindolin-2-yl)piperidine-2,6-dione] | – | 25.8 nM | 40.2 nM | 35 to 90% |
| O=C1CCC(N2C(=O)c3cccc(NCCOCCOCCOCCOCCNS(=O)(=O)N4CCC(Nc5ncc6ccc(=O)n(C7CCCC7)c6n5)CC4)c3C2=O)C(=O)N1 (centres unmarked) [compound 1, 4-((8-cyclopentyl-7-oxo-7,8-dihydro-pyrido[2,3-d]pyrimidin-2-yl)amino)-N-(14-((2-(2,6-dioxopiperidin-3-yl)-1,3-dioxoisoindolin-4-yl)amino)-3,6,9,12-tetraoxatetradecyl)piperidine-1-sulfonamide] | – | 440 nM | 403 nM | 35 to 90% |
